Legend:
trophic factors = experiment: Trophic factors in peripheral organs (kidneys, lungs, spleens) of stroke animals; assay type: in vivo, Sprague-Dawley rats; conditions: intravenous, lungs, and spleens
GDNF, NGF, and BDNF = experiment: Blood levels of trophic factors by ELISA at day 3 after stroke; assay type: in vivo, Sprague-Dawley rats; conditions: intravenous
Method: Finally, the blood levels of GDNF, NGF, and BDNF were measured to further determine the source of trophic factors. Additional stroke animals (n=6 per group) were subjected to the same surgical/drug regimen as above and were euthanized at day 3 after stroke.

OC[C@@H](O)[C@@H](O)[C@H](O)[C@H](O)CO [mannitol]
elevation of trophic factors in peripheral organs, above controls (trophic factors): 8% | trophic factors in circulating blood (GDNF, NGF, and BDNF): no detectable levels

Source: patent publication US7674457B2, “Methods for enhancing neuroprotection via administration of stem cells and blood brain barrier permeabilizers” (University of South Florida, priority 2003, dated 2010)
